# From ChEMBL document CHEMBL5365540, “Structure-activity relationship studies and biological properties evaluation of peptidic NRP-1 ligands: Investigation of N-terminal cysteine importance” (Bioorg Med Chem, 2023)
# Active and inactive are the calls of the source. The calls are words filed in the database; no cut-off is given here. *1 amine or outer side, *2 acyl side, *3 side chain or, on linkers, in order; H or OH if unused. Where a SMILES comes first, the peptide text is derived from it. Side-chain parts run from the residue outwards. [ ]: non-standard residue; d: D form. The star is where a group is joined. ξ: configuration not given here. Biotin = O=C1N[C@H]2[C@H](CS[C@H]2CCCCC(=O)*)N1; Oic(3aξ,7aξ) = O=C(O)[C@@H]1CC2CCCCC2N1; X1 = O=C([C@H](CCCS)N[*:1])[*:2]; hArg = N=C(N)NCCCC[C@H](N)C(=O)O; hCys = N[C@@H](CCS)C(=O)O; X2 = N[C@@H](CCCS)C(=O)*; Aun = NCCCCCCCCCCC(=O)O; Dab = NCC[C@H](N)C(=O)O; Dap = NC[C@H](N)C(=O)O; X3 = CSC[C@H](N)C(=O)*; ξK = NCCCCC(N)C(=O)O; Mpa = O=C(O)CCS
# Columns and labels:
# [1] = target: VEGA-NRP1 (Homo sapiens, UniProt O14786); assay: Inhibition of human biotinylated-VEGFA165 binding to recombinant human NRP-1 measured after 2 hrs by chemiluminescent based ELISA; type: protein assay; settings: read-out: IC50
# VEGA-NRP1, sequence (P15692 whole entry): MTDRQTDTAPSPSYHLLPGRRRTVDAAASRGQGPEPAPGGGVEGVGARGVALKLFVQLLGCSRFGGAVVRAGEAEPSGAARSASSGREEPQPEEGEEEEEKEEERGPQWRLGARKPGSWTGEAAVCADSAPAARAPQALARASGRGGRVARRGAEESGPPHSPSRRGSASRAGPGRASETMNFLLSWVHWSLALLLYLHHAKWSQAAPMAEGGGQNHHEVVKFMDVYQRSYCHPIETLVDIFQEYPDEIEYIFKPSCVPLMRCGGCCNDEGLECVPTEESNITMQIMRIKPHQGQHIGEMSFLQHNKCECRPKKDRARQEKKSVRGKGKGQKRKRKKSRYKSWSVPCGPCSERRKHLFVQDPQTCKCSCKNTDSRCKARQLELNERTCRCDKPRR
# VEGA-NRP1, sequence (O14786 whole entry): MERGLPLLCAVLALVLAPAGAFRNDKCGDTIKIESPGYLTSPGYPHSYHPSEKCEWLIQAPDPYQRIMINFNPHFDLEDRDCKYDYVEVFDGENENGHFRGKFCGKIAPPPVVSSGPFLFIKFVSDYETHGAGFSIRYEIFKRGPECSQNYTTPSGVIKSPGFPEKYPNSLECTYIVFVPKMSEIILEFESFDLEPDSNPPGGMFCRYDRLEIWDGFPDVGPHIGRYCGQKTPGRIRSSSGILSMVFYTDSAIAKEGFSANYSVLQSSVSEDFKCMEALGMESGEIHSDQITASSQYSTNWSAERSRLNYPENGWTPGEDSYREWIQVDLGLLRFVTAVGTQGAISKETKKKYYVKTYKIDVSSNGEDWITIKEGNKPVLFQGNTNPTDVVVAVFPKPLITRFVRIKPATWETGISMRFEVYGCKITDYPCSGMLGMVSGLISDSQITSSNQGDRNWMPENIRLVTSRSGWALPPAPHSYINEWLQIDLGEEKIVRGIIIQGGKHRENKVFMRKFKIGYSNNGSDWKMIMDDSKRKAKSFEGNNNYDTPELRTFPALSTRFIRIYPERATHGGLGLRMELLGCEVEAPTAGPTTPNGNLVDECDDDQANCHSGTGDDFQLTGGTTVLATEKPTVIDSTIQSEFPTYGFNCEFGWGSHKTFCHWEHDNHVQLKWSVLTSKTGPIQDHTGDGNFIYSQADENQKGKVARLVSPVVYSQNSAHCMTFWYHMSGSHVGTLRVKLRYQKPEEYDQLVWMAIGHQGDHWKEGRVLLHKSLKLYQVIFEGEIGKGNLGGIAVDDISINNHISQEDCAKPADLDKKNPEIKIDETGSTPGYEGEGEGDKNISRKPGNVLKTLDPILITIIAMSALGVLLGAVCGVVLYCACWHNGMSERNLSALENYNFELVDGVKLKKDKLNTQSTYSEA
# [2] = target: Neuropilin-1 (Homo sapiens) (UniProt O14786); assay: Binding affinity to NRP-1 in human MDA-MB-231 cells at 12.5 to 100 ug/ml measured after 15 mins by FITC-streptavidin staining based flow cytometry analysis; type: cell-based; settings: dose 12.5-100 µg/ml
# Neuropilin-1 (Homo sapiens), sequence (O14786 whole entry): as above
# [3] = target: Neuropilin-1 (Homo sapiens) (UniProt O14786); assay: Binding affinity to NRP-1 in human MDA-MB-435 cells at 12.5 to 100 ug/ml measured after 15 mins by FITC-streptavidin staining based flow cytometry analysis; type: cell-based; settings: dose 12.5-100 µg/ml
# [4] = tested on: Cell membrane; assay: Binding affinity to human MDA-MB-231 cell membrane at 59 uM preincubated for 15 mins at 4 degC followed by compound washout and further incubated for 5 mins with subsequent addition of compound at 37 degC by FITC-streptavidin staining based flow cytometry analysis; type: subcellular; settings: time 20.0 min
# [5] = tested on: MDA-MB-231; assay: Increase in NRP-1 expression in human MDA-MB-231 cell membrane at 59 uM preincubated for 15 mins at 4 degC followed by compound washout and further incubated for 5 mins with subsequent addition of compound at 37 degC by FITC-streptavidin staining based flow cytometry analysis; type: functional; settings: time 20.0 min
# [6] = tested on: MDA-MB-231; assay: Increase in NRP-1 expression in human MDA-MB-231 cell membrane at 59 uM preincubated for 15 mins at 4 degC followed by compound washout and further incubated for 60 mins with subsequent addition of compound at 37 degC by FITC-streptavidin staining based flow cytometry analysis; type: functional; settings: time 75.0 min
# [7] = tested on: MDA-MB-231; assay: Increase in NRP-1 expression in human MDA-MB-231 cell membrane at 5.9 uM preincubated for 15 mins at 4 degC followed by compound washout and further incubated for 60 mins with subsequent addition of compound at 37 degC by FITC-streptavidin staining based flow cytometry analysis; type: functional; settings: time 75.0 min
# [8] = tested on: Cell membrane; assay: Binding affinity to human MDA-MB-231 cell membrane at 59 uM measured after 15 mins at 4 degC by Alexa Fluor 594-streptavidin staining based fluorescence microscopy; type: subcellular
# [9] = tested on: Cell membrane; assay: Binding affinity to human MDA-MB-231 cell membrane at 59 uM preincubated for 15 mins at 4 degC followed by compound washout and further incubated for 5 mins with subsequent addition of compound at 37 degC by Alexa Fluor 594-streptavidin staining based fluorescence microscopy; type: subcellular; settings: time 20.0 min
# [10] = target: VEGA-NRP1 (Homo sapiens) (UniProt P15692+O14786); assay: Inhibition of biotinylated-VEGFA165 (unknown origin) binding to C-terminal 6-His tagged human NRP-1 (Phe22 to Lys644 residues) expressed in mouse NS0 cells at 100 uM measured after 2 hrs by chemiluminescence assay relative to control; type: cell-based
# VEGA-NRP1 (Homo sapiens), sequence (O14786 22-923 partner limits assumed): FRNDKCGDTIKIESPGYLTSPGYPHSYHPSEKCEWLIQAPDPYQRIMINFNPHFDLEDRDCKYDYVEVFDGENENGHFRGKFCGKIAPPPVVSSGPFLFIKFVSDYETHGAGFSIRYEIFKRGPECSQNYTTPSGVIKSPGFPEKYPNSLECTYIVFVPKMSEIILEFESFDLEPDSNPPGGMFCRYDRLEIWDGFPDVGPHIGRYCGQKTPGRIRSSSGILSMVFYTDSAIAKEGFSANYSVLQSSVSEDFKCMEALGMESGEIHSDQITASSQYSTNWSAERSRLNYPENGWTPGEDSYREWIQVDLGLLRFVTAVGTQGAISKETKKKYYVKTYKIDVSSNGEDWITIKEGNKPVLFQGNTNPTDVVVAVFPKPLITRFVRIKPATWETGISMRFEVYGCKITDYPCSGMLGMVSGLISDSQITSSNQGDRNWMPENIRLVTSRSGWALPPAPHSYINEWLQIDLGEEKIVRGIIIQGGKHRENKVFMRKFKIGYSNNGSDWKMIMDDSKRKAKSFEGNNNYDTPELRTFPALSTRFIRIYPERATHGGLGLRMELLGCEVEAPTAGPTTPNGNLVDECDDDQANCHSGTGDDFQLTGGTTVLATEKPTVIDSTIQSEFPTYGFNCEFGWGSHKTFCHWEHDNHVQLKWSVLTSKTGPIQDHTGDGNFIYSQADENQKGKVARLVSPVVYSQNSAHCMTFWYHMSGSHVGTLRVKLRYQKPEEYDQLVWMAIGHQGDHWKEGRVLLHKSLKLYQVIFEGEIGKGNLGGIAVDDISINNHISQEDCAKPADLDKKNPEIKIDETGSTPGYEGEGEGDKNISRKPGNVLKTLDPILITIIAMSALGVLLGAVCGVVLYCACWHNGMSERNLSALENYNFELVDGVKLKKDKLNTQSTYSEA
# VEGA-NRP1 (Homo sapiens), sequence (P15692 whole entry): as the sequence (P15692 whole entry) above
# [11] = Half-life in human serum by LC-SWATH-MS analysis; type: ADME, cell-free
molecule,measurement,setting,value
"N=C(N)NCCCC[C@H](N)C(=O)NCCCC[C@H](NC(=O)[C@@H](N)CN)C(=O)N[C@@H](CCN)C(=O)N1C2CCCCC2C[C@H]1C(=O)N[C@@H](CCCNC(=N)N)C(=O)O (stereo partly drawn) (H-[Dap]K(hArg)[Dab][Oic(3aξ,7aξ)]R-OH)",IC50,[1],440 nM
"CC[C@H](N)C(=O)N[C@@H](CCCCNC(=N)N)C(=O)NCCCC[C@H](N)C(=O)N[C@@H](CCN)C(=O)N1C2CCCCC2C[C@H]1C(=O)N[C@@H](CCCNC(=N)N)C(=O)O (stereo partly drawn) (HELM PEPTIDE1{K.[Dab].[O=C([C@@H]1CC2CCCCC2N1[*:1])[*:2]].R}|PEPTIDE2{[Abu].[N=C(N)NCCCC[C@H](N[*:1])C(=O)[*:2]]}$PEPTIDE1,PEPTIDE2,1:R3-2:R2$$$V2.0)",IC50,[1],2480 nM
"N=C(N)NCCCC[C@H](N)C(=O)NCCCC[C@H](NC(=O)[C@@H](N)CCS)C(=O)N[C@@H](CCN)C(=O)N1C2CCCCC2C[C@H]1C(=O)N[C@@H](CCCNC(=N)N)C(=O)O (stereo partly drawn) (H-[hCys]K(hArg)[Dab][Oic(3aξ,7aξ)]R-OH)",IC50,[1],700 nM
"N=C(N)NCCCC[C@H](NC(=O)CCS)C(=O)NCCCC[C@H](N)C(=O)N[C@@H](CCN)C(=O)N1C2CCCCC2C[C@H]1C(=O)N[C@@H](CCCNC(=N)N)C(=O)O (stereo partly drawn) (H-K([hArg-Mpa])[Dab][Oic(3aξ,7aξ)]R-OH)",IC50,[1],2170 nM
"N=C(N)NCCCC[C@H](NC(=O)[C@@H](N)CS)C(=O)NCCCCC(NC(=O)CCCCCCCCCCNC(=O)CCCC[C@@H]1SC[C@@H]2NC(=O)N[C@@H]21)C(=O)N[C@@H](CCN)C(=O)N1C2CCCCC2C[C@H]1C(=O)N[C@@H](CCCNC(=N)N)C(=O)O (stereo partly drawn) ({Biotin-Aun}-[ξK]([hArg-Cys])[Dab][Oic(3aξ,7aξ)]R-OH)",Activity,[2],Active
same,Activity,[3],inactive
same,Activity,[4],Active
same,Activity,[5],Active
same,Activity,[6],Active
same,Activity,[7],inactive
same,Activity,[8],Active
same,Activity,[9],Active
"N=C(N)NCCCC[C@H](NC(=O)[C@@H](N)CCCS)C(=O)NCCCC[C@H](N)C(=O)N[C@@H](CCN)C(=O)N1C2CCCCC2C[C@H]1C(=O)N[C@@H](CCCNC(=N)N)C(=O)O (stereo partly drawn) (H-K([hArg-X2])[Dab][Oic(3aξ,7aξ)]R-OH)",IC50,[1],1330 nM
"CSC[C@H](N)C(=O)N[C@@H](CCCCNC(=O)[C@@H](N)CCCCNC(=N)N)C(=O)N[C@@H](CCN)C(=O)N1C2CCCCC2C[C@H]1C(=O)N[C@@H](CCCNC(=N)N)C(=O)O (stereo partly drawn) (H-C(Me)K(hArg)[Dab][Oic(3aξ,7aξ)]R-OH)",IC50,[1],2480 nM
"N=C(N)NCCCC[C@H](NC(=O)[C@@H](N)CN)C(=O)NCCCC[C@H](N)C(=O)N[C@@H](CCN)C(=O)N1C2CCCCC2C[C@H]1C(=O)N[C@@H](CCCNC(=N)N)C(=O)O (stereo partly drawn) (H-K([hArg-Dap])[Dab][Oic(3aξ,7aξ)]R-OH)",IC50,[1],330 nM
"CSC[C@H](N)C(=O)N[C@@H](CCCCNC(=N)N)C(=O)NCCCC[C@H](N)C(=O)N[C@@H](CCN)C(=O)N1C2CCCCC2C[C@H]1C(=O)N[C@@H](CCCNC(=N)N)C(=O)O (stereo partly drawn) (H-K([hArg-X3])[Dab][Oic(3aξ,7aξ)]R-OH)",IC50,[1],2820 nM
"N=C(N)NCCCC[C@H](NC(=O)CCCCCCCCCCNC(=O)CCCC[C@@H]1SC[C@@H]2NC(=O)N[C@@H]21)C(=O)NCCCC[C@H](NC(=O)[C@@H](N)CS)C(=O)N[C@@H](CCN)C(=O)N1C2CCCCC2C[C@H]1C(=O)N[C@@H](CCCNC(=N)N)C(=O)O (stereo partly drawn) (H-CK([hArg-Aun-Biotin])[Dab][Oic(3aξ,7aξ)]R-OH)",Activity,[2],Active
same,Activity,[3],inactive
same,Activity,[4],Active
same,Activity,[5],Active
same,Activity,[6],Active
same,Activity,[7],inactive
same,Activity,[8],Active
same,Activity,[9],Active
"N=C(N)NCCCC[C@H](N)C(=O)NCCCC[C@H](NC(=O)CCS)C(=O)N[C@@H](CCN)C(=O)N1C2CCCCC2C[C@H]1C(=O)N[C@@H](CCCNC(=N)N)C(=O)O (stereo partly drawn) ([Mpa]K(hArg)[Dab][Oic(3aξ,7aξ)]R-OH)",IC50,[1],1130 nM
C[C@@H](O)[C@H](NC(=O)[C@H](CCCNC(=N)N)NC(=O)[C@@H](N)CCC(=O)O)C(=O)N[C@@H](CS)C(=O)N[C@@H](CCCNC(=N)N)C(=O)N[C@@H](CS)C(=O)N[C@@H](CC(=O)O)C(=O)N[C@@H](CCCCN)C(=O)N1CCC[C@H]1C(=O)N[C@@H](CCCNC(=N)N)C(=O)N[C@@H](CCCNC(=N)N)C(=O)O (H-ERTCRCDKPRR-OH),inhibition,[10],96%
"N=C(N)NCCCC[C@H](N)C(=O)NCCCC[C@H](NC(=O)[C@@H](N)CO)C(=O)N[C@@H](CCN)C(=O)N1C2CCCCC2C[C@H]1C(=O)N[C@@H](CCCNC(=N)N)C(=O)O (stereo partly drawn) (HELM PEPTIDE1{S.K.[Dab].[O=C([C@@H]1CC2CCCCC2N1[*:1])[*:2]].R}|PEPTIDE2{[N=C(N)NCCCC[C@H](N)C(=O)[*:2]]}$PEPTIDE1,PEPTIDE2,2:R3-1:R2$$$V2.0)",IC50,[1],1540 nM
"CC[C@H](N)C(=O)N[C@@H](CCCCNC(=O)[C@@H](N)CCCCNC(=N)N)C(=O)N[C@@H](CCN)C(=O)N1C2CCCCC2C[C@H]1C(=O)N[C@@H](CCCNC(=N)N)C(=O)O (stereo partly drawn) (HELM PEPTIDE1{[Abu].K.[Dab].[O=C([C@@H]1CC2CCCCC2N1[*:1])[*:2]].R}|PEPTIDE2{[N=C(N)NCCCC[C@H](N)C(=O)[*:2]]}$PEPTIDE1,PEPTIDE2,2:R3-1:R2$$$V2.0)",IC50,[1],2410 nM
same,half-life,[11],120 min
"N=C(N)NCCCC[C@H](NC(=O)[C@@H](N)CCS)C(=O)NCCCC[C@H](N)C(=O)N[C@@H](CCN)C(=O)N1C2CCCCC2C[C@H]1C(=O)N[C@@H](CCCNC(=N)N)C(=O)O (stereo partly drawn) (H-K([hArg-hCys])[Dab][Oic(3aξ,7aξ)]R-OH)",IC50,[1],630 nM
H-CDKPRR-OH,inhibition,[10],96%
"N=C(N)NCCCC[C@H](NC(=O)[C@@H](N)CO)C(=O)NCCCC[C@H](N)C(=O)N[C@@H](CCN)C(=O)N1C2CCCCC2C[C@H]1C(=O)N[C@@H](CCCNC(=N)N)C(=O)O (stereo partly drawn) (HELM PEPTIDE1{K.[Dab].[O=C([C@@H]1CC2CCCCC2N1[*:1])[*:2]].R}|PEPTIDE2{S.[N=C(N)NCCCC[C@H](N[*:1])C(=O)[*:2]]}$PEPTIDE1,PEPTIDE2,1:R3-2:R2$$$V2.0)",IC50,[1],810 nM
"N=C(N)NCCCC[C@H](N)C(=O)NCCCC[C@H](NC(=O)[C@@H](N)CCCS)C(=O)N[C@@H](CCN)C(=O)N1C2CCCCC2C[C@H]1C(=O)N[C@@H](CCCNC(=N)N)C(=O)O (stereo partly drawn) (H-[X1]K(hArg)[Dab][Oic(3aξ,7aξ)]R-OH)",IC50,[1],890 nM
